Test results reported in PubChem BioAssay AID330 (DTP/NCI, 2004).
Several values for one entry are separate records, joined by “and”; a condition that tells them apart may be missing. Equal values may be shown once. Inconclusive results and toxic doses are left out. How the source made its calls: active means survival T/C of 150% or more; inactive means T/C below 125% in these data.

Test system: P388 leukemia ip, CD2F1 mice, survival T/C
Experiment: NCI In Vivo Anticancer Drug Screen. Data for tumor model P388 Leukemia (intraperitoneal) in CD2F1 (CDF1) mice
Conditions: endpoint: median survival time, higher = longer survival
Procedure, shortened: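 Mice carrying the transplanted tumor received test compound or vehicle. Survival was recorded in each group, and the value is the treated-group measurement divided by that of the vehicle-treated control group.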

[1] = dose: 60.0 mg/kg/injection, schedule: Q01DX005 (ip), vehicle: saline
[2] = dose: 50.0 mg/kg/injection, schedule: Q01DX005 (ip), vehicle: Klucel (hydroxypropylcellulose) (HPC)
[3] = dose: 100.0 mg/kg/injection, schedule: Q01DX005 (ip), vehicle: Klucel (hydroxypropylcellulose) (HPC)
[4] = dose: 200.0 mg/kg/injection, schedule: Q01DX005 (ip), vehicle: Klucel (hydroxypropylcellulose) (HPC)

Measured: T/C

CN(C)P(=O)(OCC12C=C(OP(=O)(N(C)C)N(C)C)CC1(COP(=O)(N(C)C)N(C)C)C1CCC2C1)N(C)C (configuration not stated)
inactive: [1] 101 % of control | dose: 120.0 mg/kg/injection, schedule: Q01DX005 (ip), vehicle: saline 98 % of control | dose: 240.0 mg/kg/injection, schedule: Q01DX005 (ip), vehicle: saline 102 % of control

CC1=CCN(C)C(C#N)C1 (configuration not stated)
inactive: dose: 12.5 mg/kg/injection, schedule: Q01DX005 (ip), vehicle: saline 97 % of control | dose: 25.0 mg/kg/injection, schedule: Q01DX005 (ip), vehicle: saline 105 % of control | dose: 50.0 mg/kg/injection, schedule: Q01DX005 (ip), vehicle: saline 105 % of control

CN(C)C1C(=O)C(C(=O)NC[N+]23CCO[B-]2(c2ccc(Cl)cc2)OCC3)=C(O)C2(O)C(=O)C3=C(O)c4c(O)cccc4C(C)(O)C3CC12 (configuration not stated)
inactive: dose: 25.0 mg/kg/injection, schedule: Q01DX005 (ip), vehicle: Klucel (hydroxypropylcellulose) (HPC) 111 % of control | [2] 107 % of control and 108 % of control and 110 % of control | [3] 108 % of control (2×) and 114 % of control | [4] 108 % of control and 119 % of control and 120 % of control

CSCS(=O)CC(C)C (configuration not stated)
inactive: dose: 50.0 mg/kg/injection, schedule: Q01DX005 (ip), vehicle: water 104 % of control | dose: 100.0 mg/kg/injection, schedule: Q01DX005 (ip), vehicle: water 102 % of control | dose: 200.0 mg/kg/injection, schedule: Q01DX005 (ip), vehicle: water 105 % of control

O=[N+]([O-])c1cc([N+](=O)[O-])c2ccc(S(=O)(=O)O)cc2c1O
inactive: dose: 12.5 mg/kg/injection, schedule: Q04DX002 (ip), vehicle: saline 100 % of control | dose: 15.0 mg/kg/injection, schedule: Q01DX005 (ip), vehicle: saline 105 % of control | dose: 30.0 mg/kg/injection, schedule: Q01DX005 (ip), vehicle: saline 99 % of control | dose: 50.0 mg/kg/injection, schedule: Q04DX002 (ip), vehicle: saline 93 % of control | [1] 100 % of control and 97 % of control | dose: 100.0 mg/kg/injection, schedule: Q01DX001 (ip), vehicle: saline with Tween-80 102 % of control | dose: 100.0 mg/kg/injection, schedule: Q04DX002 (ip), vehicle: saline with Tween-80 98 % of control | dose: 200.0 mg/kg/injection, schedule: Q01DX001 (ip), vehicle: saline with Tween-80 96 % of control

CCC(C)NCCNCCNC(C)CC (configuration not stated)
inactive: dose: 6.25 mg/kg/injection, schedule: Q01DX009 (ip), vehicle: saline 100 % of control | dose: 12.5 mg/kg/injection, schedule: Q01DX009 (ip), vehicle: saline 100 % of control | dose: 25.0 mg/kg/injection, schedule: Q01DX009 (ip), vehicle: saline 100 % of control

O=C(Nc1ccccc1)/C(N=Nc1ccccc1Cl)=N\Nc1cc(S(=O)(=O)O)ccc1Cl
inactive: [2] 103 % of control | [3] 102 % of control | [4] 107 % of control

CCCCCCCCCCCCCC(=O)OCCN1CCN(CCCN2c3ccccc3Sc3ccc(C(F)(F)F)cc32)CC1
inactive: dose: 3.12 mg/kg/injection, schedule: Q01DX009 (ip), vehicle: saline with Tween-80 106 % of control | dose: 6.25 mg/kg/injection, schedule: Q01DX009 (ip), vehicle: saline with Tween-80 102 % of control | dose: 12.5 mg/kg/injection, schedule: Q01DX009 (ip), vehicle: saline with Tween-80 112 % of control and 113 % of control | dose: 25.0 mg/kg/injection, schedule: Q01DX009 (ip), vehicle: saline with Tween-80 116 % of control

CCOc1c/c(=N\N=C(/C)c2ccc(Cl)cc2)n(C)c(=O)n1C
inactive: dose: 50.0 mg/kg/injection, schedule: Q01DX009 (ip), vehicle: Klucel (hydroxypropylcellulose) (HPC) 93 % of control | dose: 100.0 mg/kg/injection, schedule: Q01DX009 (ip), vehicle: Klucel (hydroxypropylcellulose) (HPC) 96 % of control | dose: 200.0 mg/kg/injection, schedule: Q01DX009 (ip), vehicle: Klucel (hydroxypropylcellulose) (HPC) 100 % of control

CSC(=S)n1nc(-c2ccccc2)c(N=Nc2ccc(C)cc2)c1-c1ccccc1
inactive: dose: 50.0 mg/kg/injection, schedule: Q01DX005 (ip), vehicle: saline with Tween-80 98 % of control | dose: 100.0 mg/kg/injection, schedule: Q01DX005 (ip), vehicle: saline with Tween-80 91 % of control | dose: 200.0 mg/kg/injection, schedule: Q01DX005 (ip), vehicle: saline with Tween-80 93 % of control
